This note sets out measurements from patent publication US20170007568A1, “USE OF COMPOSITION CONTAINING IRON (II) AMINO ACID CHELATE IN PREPARATION OF DRUG FOR AMELIORATING DIABETES” (PROFEAT BIOTECHNOLOGY CO., LTD., priority 2014, published 2017).

What all share (type): in vivo, C57BL/6JNR male mice
Assay [1] concerns type 2 diabetes mice (nicotinamide/streptozotocin + high fat diet). Description: Oral glucose tolerance assay (OGTT) in drug-induced diabetic mice. The note with it: metformin group, dose not given. The method, then: (§1) C57BL/6JNR male mice at 6 weeks of age (purchased from National Laboratory Animal Center) were fed with normal diet for 1 week. Each of the mice was injected intraperitoneally with 240 mg/kg nicotinamide, and after 15 minutes, each of the mice was injected intraperitoneally with 100 mg/kg streptozotocin. Two days later, each of the mice was injected with nicotinamide and streptozotocin with the same dosages and method as shown above, followed by feeding with the high fat diet (60% fat). Two months later, the mice having fasting blood glucose higher than 140 mg/dl and impaired glucose tolerance (which meant that the blood glucose values were not measured within normal range after injecting glucose for 2 hours) were picked to be type 2 diabetes mice.
(§2) The mice were divided into 4 groups which included a control group (supplied with phosphate solution), a metformin (Met) group, a composition A1 with low dose (4 mg/kg/day) group, and a composition A1 with high dose (12 mg/kg/day) group. The weights of the mice were measured every 3 days, and the blood glucose values, oral glucose tolerance assay (OGTT), glycated hemoglobin (HbA1c) and insulin variances of the mice were measured every 4 weeks.
(§3) The blood glucose values were measured with a Chemistry Analyzer (Hitachi, Ltd., Japan). […] The insulin variance was measured with enzyme-linked immunosorbent assay (ELISA) (Mercodia, Ltd. Sweden).

Assay [2] shares this test system. Description: Glycated hemoglobin (HbA1c) of drug-induced diabetic mice. The note with it: dose not printed, one month. The protocol:
as §1, §2, §3

For assay [3] the test system is unchanged. Description: Insulin (ELISA) of drug-induced diabetic mice. The conditions noted are these: dose not printed, one month. The protocol:
as §1, §2, §3

The test system is the same in assay [4]. Description: Fasting blood glucose of drug-induced diabetic mice. The note with it: dose not printed, one month. The protocol:
as §1, §2, §3

For assay [5] the test system is unchanged. Description: HOMA-IR index of drug-induced diabetic mice. The conditions noted are these: dose not printed, one month. The method, then:
as §1, §2
The index of homeostasis model assessment for insulin resistance (HOMA-IR) was calculated from the following formula:
HOMA-IR index=insulin (μU/ml)×glucose (mmol/L)/22.5.

`CN(C)C(=N)N=C(N)N` [Metformin]: in assay [1], the “glucose tolerance (OGTT)” value was “improved”. Also, in assay [2], the “Glycated hemoglobin (HbA1c)” value stood at 3.57 ± 0.04. In addition, in assay [3], the insulin was 11.11 ± 6.47. Moreover, the Fasting blood glucose in assay [4] amounted to 169.00 ± 10.77. For the same compound, the HOMA-IR in assay [5] is reported as 4.53 ± 1.42; in assay [5] (listed as metformin), 4.53.

Consider `NCC(=O)O` [Glycine], for which the “Glycated hemoglobin (HbA1c)” value in assay [2] is given as 3.71 ± 0.03. In assay [3], the insulin was determined as 12.47 ± 2.36. In addition, the Fasting blood glucose in assay [4] is on record as 182.88 ± 11.20. For the same compound, the HOMA-IR in assay [5] is recorded as 5.23 ± 1.73.
